From publication PMC9823097, “Dysregulation of PRMT5 in chronic lymphocytic leukemia promotes progression with high risk of Richter’s transformation” (Nature Communications, 2023)

How the values were obtained:
[1] = test system: Mec-1 cells; experiment: Cell growth curves over 12 days, Mec-1; type: cell-based; conditions: for anti-proliferative potency compared to PRT382: Mec-1
Procedure: (§1) Live cells/mL were counted on days 3, 6, 10, and 12. […] The split factor was calculated at indicated time points by dividing the counted cells/mL by 3E5. Cell growth was extrapolated over time by multiplying the subsequent cell count by the previous split factor. Cell growth is plotted as fold change relative to DMSO-treated cells.

[2] = test system: HG3 cells; experiment: Cell growth curves over 12 days, HG3; type: cell-based; conditions: for anti-proliferative potency compared to PRT382: HG3
Procedure: as §1

Nc1ncnc2c1ccn2[C@@H]1O[C@H]([C@H](O)c2ccccc2)[C@@H](O)[C@H]1O [LLY-283]
Rep 1 Live Cells [Fold Change] ([1]; Mec-1, 1 nM, day 0): 1 Fold Change | Rep 2 Live Cells [Fold Change] ([1]; Mec-1, 1 nM, day 0): 1 Fold Change | Rep 1 Live Cells [Fold Change] ([1]; Mec-1, 1 nM, day 3): 7.4 Fold Change | Rep 2 Live Cells [Fold Change] ([1]; Mec-1, 1 nM, day 3): 6.83 Fold Change | Rep 1 Live Cells [Fold Change] ([1]; Mec-1, 1 nM, day 6): 50.6 Fold Change | Rep 2 Live Cells [Fold Change] ([1]; Mec-1, 1 nM, day 6): 41.9 Fold Change | Rep 1 Live Cells [Fold Change] ([1]; Mec-1, 1 nM, day 10): 397 Fold Change | Rep 2 Live Cells [Fold Change] ([1]; Mec-1, 1 nM, day 10): 446 Fold Change | Rep 1 Live Cells [Fold Change] ([1]; Mec-1, 1 nM, day 12): 1480 Fold Change | Rep 2 Live Cells [Fold Change] ([1]; Mec-1, 1 nM, day 12): 1580 Fold Change | Rep 1 Live Cells [Fold Change] ([1]; Mec-1, 10 nM, day 0): 1 Fold Change | Rep 2 Live Cells [Fold Change] ([1]; Mec-1, 10 nM, day 0): 1 Fold Change | Rep 1 Live Cells [Fold Change] ([1]; Mec-1, 10 nM, day 3): 6.77 Fold Change | Rep 2 Live Cells [Fold Change] ([1]; Mec-1, 10 nM, day 3): 6.33 Fold Change | Rep 1 Live Cells [Fold Change] ([1]; Mec-1, 10 nM, day 6): 30.7 Fold Change | Rep 2 Live Cells [Fold Change] ([1]; Mec-1, 10 nM, day 6): 34 Fold Change | Rep 1 Live Cells [Fold Change] ([1]; Mec-1, 10 nM, day 10): 156 Fold Change | Rep 2 Live Cells [Fold Change] ([1]; Mec-1, 10 nM, day 10): 260 Fold Change | Rep 1 Live Cells [Fold Change] ([1]; Mec-1, 10 nM, day 12): 568 Fold Change | Rep 2 Live Cells [Fold Change] ([1]; Mec-1, 10 nM, day 12): 278 Fold Change | Rep 1 Live Cells [Fold Change] ([1]; Mec-1, 100 nM, day 0): 1 Fold Change | Rep 2 Live Cells [Fold Change] ([1]; Mec-1, 100 nM, day 0): 1 Fold Change | Rep 1 Live Cells [Fold Change] ([1]; Mec-1, 100 nM, day 3): 4.6 Fold Change | Rep 2 Live Cells [Fold Change] ([1]; Mec-1, 100 nM, day 3): 4.47 Fold Change | Rep 1 Live Cells [Fold Change] ([1]; Mec-1, 100 nM, day 6): 6.46 Fold Change | Rep 2 Live Cells [Fold Change] ([1]; Mec-1, 100 nM, day 6): 5.94 Fold Change | Rep 1 Live Cells [Fold Change] ([1]; Mec-1, 100 nM, day 10): 4.1 Fold Change | Rep 2 Live Cells [Fold Change] ([1]; Mec-1, 100 nM, day 10): 4.16 Fold Change | Rep 1 Live Cells [Fold Change] ([1]; Mec-1, 100 nM, day 12): 2.4 Fold Change | Rep 2 Live Cells [Fold Change] ([1]; Mec-1, 100 nM, day 12): 2.8 Fold Change | Rep 1 Live Cells [Fold Change] ([1]; Mec-1, 1 µM, day 0): 1 Fold Change | Rep 2 Live Cells [Fold Change] ([1]; Mec-1, 1 µM, day 0): 1 Fold Change | Rep 1 Live Cells [Fold Change] ([1]; Mec-1, 1 µM, day 3): 3.67 Fold Change | Rep 2 Live Cells [Fold Change] ([1]; Mec-1, 1 µM, day 3): 4.57 Fold Change | Rep 1 Live Cells [Fold Change] ([1]; Mec-1, 1 µM, day 6): 4.12 Fold Change | Rep 2 Live Cells [Fold Change] ([1]; Mec-1, 1 µM, day 6): 5.92 Fold Change | Rep 1 Live Cells [Fold Change] ([1]; Mec-1, 1 µM, day 10): 2.43 Fold Change | Rep 2 Live Cells [Fold Change] ([1]; Mec-1, 1 µM, day 10): 2.13 Fold Change | Rep 1 Live Cells [Fold Change] ([1]; Mec-1, 1 µM, day 12): 1.89 Fold Change | Rep 2 Live Cells [Fold Change] ([1]; Mec-1, 1 µM, day 12): 1.46 Fold Change | anti-proliferative potency compared to PRT382 ([1]; high doses (1µM)): similar | anti-proliferative potency compared to PRT382 ([1]; lower doses (10nM, 100nM)): more potent | Rep 1 Live Cells [Fold Change] ([2]; HG3, 1 nM, day 0): 1 Fold Change | Rep 2 Live Cells [Fold Change] ([2]; HG3, 1 nM, day 0): 1 Fold Change | Rep 1 Live Cells [Fold Change] ([2]; HG3, 1 nM, day 3): 6.4 Fold Change | Rep 2 Live Cells [Fold Change] ([2]; HG3, 1 nM, day 3): 6.4 Fold Change | Rep 1 Live Cells [Fold Change] ([2]; HG3, 1 nM, day 6): 45.44 Fold Change | Rep 2 Live Cells [Fold Change] ([2]; HG3, 1 nM, day 6): 39.4667 Fold Change | Rep 1 Live Cells [Fold Change] ([2]; HG3, 1 nM, day 10): 270.368 Fold Change | Rep 2 Live Cells [Fold Change] ([2]; HG3, 1 nM, day 10): 299.947 Fold Change | Rep 1 Live Cells [Fold Change] ([2]; HG3, 1 nM, day 12): 973.325 Fold Change | Rep 2 Live Cells [Fold Change] ([2]; HG3, 1 nM, day 12): 1379.76 Fold Change | Rep 1 Live Cells [Fold Change] ([2]; HG3, 10 nM, day 0): 1 Fold Change | Rep 2 Live Cells [Fold Change] ([2]; HG3, 10 nM, day 0): 1 Fold Change | Rep 1 Live Cells [Fold Change] ([2]; HG3, 10 nM, day 3): 6.167 Fold Change | Rep 2 Live Cells [Fold Change] ([2]; HG3, 10 nM, day 3): 6.2 Fold Change | Rep 1 Live Cells [Fold Change] ([2]; HG3, 10 nM, day 6): 34.3278 Fold Change | Rep 2 Live Cells [Fold Change] ([2]; HG3, 10 nM, day 6): 39.4733 Fold Change | Rep 1 Live Cells [Fold Change] ([2]; HG3, 10 nM, day 10): 260.891 Fold Change | Rep 2 Live Cells [Fold Change] ([2]; HG3, 10 nM, day 10): 335.523 Fold Change | Rep 1 Live Cells [Fold Change] ([2]; HG3, 10 nM, day 12): 755.715 Fold Change | Rep 2 Live Cells [Fold Change] ([2]; HG3, 10 nM, day 12): 1174.33 Fold Change | Rep 1 Live Cells [Fold Change] ([2]; HG3, 100 nM, day 0): 1 Fold Change | Rep 2 Live Cells [Fold Change] ([2]; HG3, 100 nM, day 0): 1 Fold Change | Rep 1 Live Cells [Fold Change] ([2]; HG3, 100 nM, day 3): 5.133 Fold Change | Rep 2 Live Cells [Fold Change] ([2]; HG3, 100 nM, day 3): 5.6 Fold Change | Rep 1 Live Cells [Fold Change] ([2]; HG3, 100 nM, day 6): 5.048 Fold Change | Rep 2 Live Cells [Fold Change] ([2]; HG3, 100 nM, day 6): 7.691 Fold Change | Rep 1 Live Cells [Fold Change] ([2]; HG3, 100 nM, day 10): 6.991 Fold Change | Rep 2 Live Cells [Fold Change] ([2]; HG3, 100 nM, day 10): 12.0359 Fold Change | Rep 1 Live Cells [Fold Change] ([2]; HG3, 100 nM, day 12): 6.651 Fold Change | Rep 2 Live Cells [Fold Change] ([2]; HG3, 100 nM, day 12): 12.2598 Fold Change | Rep 1 Live Cells [Fold Change] ([2]; HG3, 1 µM, day 0): 1 Fold Change | Rep 2 Live Cells [Fold Change] ([2]; HG3, 1 µM, day 0): 1 Fold Change | Rep 1 Live Cells [Fold Change] ([2]; HG3, 1 µM, day 3): 4.533 Fold Change | Rep 2 Live Cells [Fold Change] ([2]; HG3, 1 µM, day 3): 5.967 Fold Change | Rep 1 Live Cells [Fold Change] ([2]; HG3, 1 µM, day 6): 3.083 Fold Change | Rep 2 Live Cells [Fold Change] ([2]; HG3, 1 µM, day 6): 6.961 Fold Change | Rep 1 Live Cells [Fold Change] ([2]; HG3, 1 µM, day 10): 2.4 Fold Change | Rep 2 Live Cells [Fold Change] ([2]; HG3, 1 µM, day 10): 7.031 Fold Change | Rep 1 Live Cells [Fold Change] ([2]; HG3, 1 µM, day 12): 1.832 Fold Change | Rep 2 Live Cells [Fold Change] ([2]; HG3, 1 µM, day 12): 4.873 Fold Change | anti-proliferative potency compared to PRT382 ([2]; high doses (1µM)): similar | anti-proliferative potency compared to PRT382 ([2]; lower doses (10nM, 100nM)): more potent
